In patent US20180296523A1, “USE OF POLYMETHOXYLATED FLAVONES TO AMELIORATE CIRCADIAN RHYTHM DISORDERS” (THE BOARD OF REGENTS OF THE UNIVERSITY OF TEXAS SY, priority 2017, published 2018):
Each block holds one molecule with its values, some of them ahead of it.

Assays:
RORα-LBD = molecular target: T1, RORα-LBD (Homo sapiens, UniProt P35398); test: Radioligand receptor binding assay with 25-[3H]-OHC, RORα-LBD; settings: for competitive binding to RORα-LBD: in the presence of 4.5 nM 25-[3H]-OHC
T1 sequence (P35398 272-510 limits assumed): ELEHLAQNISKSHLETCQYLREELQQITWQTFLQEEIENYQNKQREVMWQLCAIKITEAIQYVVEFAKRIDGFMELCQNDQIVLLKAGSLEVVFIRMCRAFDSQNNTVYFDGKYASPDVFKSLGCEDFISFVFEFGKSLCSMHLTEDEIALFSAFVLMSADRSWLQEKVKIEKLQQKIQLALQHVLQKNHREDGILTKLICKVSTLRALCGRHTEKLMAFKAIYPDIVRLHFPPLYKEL
Method: (§1) Ligand binding was determined by filter binding assays to calculate the Kd value. […] Ki was determined using the Cheng-Prusoff equation.

GAL4 DBD-RORα LBD = molecular target: T2, GAL4 DBD-RORα LBD (Mus musculus, UniProt P51448); test: Mammalian one-hybrid reporter assay in HEK293T cells, GAL4-RORα; type: cell-based; settings: ligand interaction reduces transcriptional activity
T2 construct: mouse RORα-LBD (aa 261-523); expressed in transfected cells; host or cells: HEK293T
T2 sequence (P51448 261-523): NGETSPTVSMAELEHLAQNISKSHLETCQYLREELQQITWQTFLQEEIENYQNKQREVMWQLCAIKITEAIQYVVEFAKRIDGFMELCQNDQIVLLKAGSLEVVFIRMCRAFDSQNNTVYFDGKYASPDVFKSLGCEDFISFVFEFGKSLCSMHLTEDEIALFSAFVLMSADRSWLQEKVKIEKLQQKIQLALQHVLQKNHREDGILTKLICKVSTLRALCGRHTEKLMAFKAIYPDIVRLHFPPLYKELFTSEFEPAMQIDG
From the text: (§2) Plasmids containing the retinoic acid-related orphan receptor response element (RORE) from mouse Bmal1 promoter, pcDNA3.1B-G4DBD-RORαLBD and pcDNA3.1BG4DBD-RORγLBD were constructed in our lab. Specifically, the 1960 bp sequences (−1830/+130) of the mouse Bmal1 promoter harboring either WT ([…] (SEQ ID NO:1) and […] (SEQ ID NO:2)) or mutant ([…] (SEQ ID NO:3)) RORE were PCR amplified from mouse genomic DNA and cloned into pGL3-promoter luciferase vector. For expression of RORα or RORγ-GAL4 protein, mouse RORα-LBD (aa 261-523) or RORγ-LBD (aa 250-516) were PCR amplified from mouse genomic DNA and cloned into a GAL4-DBD-containing vector, pcDNA3.1B.
(§3) For mammalian one-hybrid assays, HEK293T cells were cotransfected with pcDNA3.1B-G4DBD-RORα/γLBD, pGL4.31 and TK promoter Renilla luciferase construct (tK.pRL). To investigate the regulation of the Bmal1 reporter, Hepa1-6 cells were cotransfected with Bmal1-WT or mutant RORE reporter plasmids, RORα, RORγ or Rev-erbα expression construct along with tK.pRL. Mouse and human siRNA targeting RORα and RORγ were purchased from Santa Cruz. Transfection was performed by Lipfectamine 2000 reagent (Invitrogen) Twenty-four hours after transfection, the cells were treated with vehicle or NOB. Lysates were collected 24 h after treatment, and firefly and Renilla luciferase activities were measured by using a Dual-Luciferase Reporter System (Promega).
(§4) For radio-ligand receptor binding assays, previously described protocols with minor modifications (Kumar et al., 2010; Wang et al., 2010b) were adopted.

GAL4 DBD-RORγ LBD = molecular target: T3, GAL4 DBD-RORγ LBD (Mus musculus, UniProt P51450); test: Mammalian one-hybrid reporter assay in HEK293T cells, GAL4-RORγ; type: cell-based; settings: ligand interaction reduces transcriptional activity
T3 construct: RORγ-LBD (aa 250-516); expressed in transfected cells; host or cells: HEK293T
T3 sequence (P51450 250-516): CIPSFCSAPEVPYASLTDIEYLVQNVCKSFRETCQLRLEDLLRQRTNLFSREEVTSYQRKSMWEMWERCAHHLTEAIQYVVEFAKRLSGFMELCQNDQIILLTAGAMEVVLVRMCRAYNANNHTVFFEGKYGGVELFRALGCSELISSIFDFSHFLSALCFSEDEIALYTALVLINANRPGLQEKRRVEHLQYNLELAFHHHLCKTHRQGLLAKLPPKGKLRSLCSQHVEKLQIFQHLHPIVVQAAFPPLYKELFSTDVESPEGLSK
From the text: as §2, §3, §4

RORγ-LBD = molecular target: T4, RORγ-LBD (Homo sapiens, UniProt P51449); test: Radioligand receptor binding assay with 25-[3H]-OHC, RORγ-LBD; settings: in the presence of 4.5 nM 25-[3H]-OHC
T4 sequence (P51449 269-508 limits assumed): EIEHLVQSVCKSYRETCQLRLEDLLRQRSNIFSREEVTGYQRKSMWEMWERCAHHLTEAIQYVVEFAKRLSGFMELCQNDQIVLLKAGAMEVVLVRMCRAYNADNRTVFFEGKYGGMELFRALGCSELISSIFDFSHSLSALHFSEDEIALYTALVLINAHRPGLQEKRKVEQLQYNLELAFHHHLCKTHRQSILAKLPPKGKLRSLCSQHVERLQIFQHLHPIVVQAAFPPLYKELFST
Method: as §1

[1] = system: Clock^Δ19/+ PER2::Luc reporter cells; test: High-throughput chemical screen, PER2::Luc reporter rhythm; type: cell-based, mouse; settings: for PER2::Luc reporter rhythm / circadian amplitude: Clock^Δ19/+ cells, forskolin pre-stimulated
Method: Specifically, the chemical screen for circadian clock modulators was conducted at the Chemical Genomics Core facility at the University of Texas Health Science Center at Houston (UTHSC-H). The in-house chemical library screened consisted of compounds from the National Institutes of Health (NIH) Clinical Collection, National Cancer Institute collection, and Microsource Spectrum Collection. Screening was conducted largely on the basis of the protocol previously described (Chen et al., 2012). […] Upon confluency, cells were incubated with 5 μM forskolin for 1-2 hr, followed by the addition of chemical compounds to the plates with robotic arms (Beckman), and then subjected to continuous monitoring over several days in a temperature-controlled EnVision microplate reader (Perkin Elmer). Data analysis was carried out by using the MultiCycle software (Actimetrics) for measurement of period, phase, and amplitude. The chemical screen for circadian clock modulators was conducted at the Chemical Genomics Core facility at the UTHSC-H. The in-house chemical library screened consists of compounds from NIH Clinical Collection, NCI collection and Microsource Spectrum Collection. The screening was conducted largely based on the protocol previously described (Chen et al., 2012). […] Cells were then incubated with 5 μM forskolin for 1-2 h followed by the addition of chemical compounds to the plates with robotic arms (Beckman), and then subjected to continuous monitoring over several days in a temperature-controlled EnVision microplate reader (Perkin Elmer). Data analysis was carried out by using the MultiCycle software (Actimetrics) for measurement of period, phase, and amplitude. […] Tissue explant experiments were conducted as described previously (Chen et al., 2012).

[2] = system: PER2::LucSV reporter fibroblast cells; test: Dose response validation of reporter rhythm in PER2::LucSV cells; type: cell-based, mouse; settings: PER2::LucSV reporter cells
Method: The chemical screen for circadian clock modulators was conducted at the Chemical Genomics Core facility at the UTHSC-H. The in-house chemical library screened consists of compounds from NIH Clinical Collection, NCI collection and Microsource Spectrum Collection. The screening was conducted largely based on the protocol previously described (Chen et al., 2012). […] Cells were then incubated with 5 μM forskolin for 1-2 h followed by the addition of chemical compounds to the plates with robotic arms (Beckman), and then subjected to continuous monitoring over several days in a temperature-controlled EnVision microplate reader (Perkin Elmer). Data analysis was carried out by using the MultiCycle software (Actimetrics) for measurement of period, phase, and amplitude. […] Tissue explant experiments were conducted as described previously (Chen et al., 2012).

total number of binding sites (Bmax) (RORα-LBD; Scatchard plot, RORα): 100 fmol/mg of protein
Structure (SMILES): C[C@H](CCCC(C)(C)O)[C@H]1CC[C@H]2[C@@H]3CC=C4C[C@@H](O)CC[C@]4(C)[C@H]3CC[C@]12C [25-[3H]—OHC, 25-[3H]-hydroxycholesterol]

activity on GAL4-RORα chimeric receptor (GAL4 DBD-RORα LBD): robust activities | activity on GAL4-RORγ chimeric receptor (GAL4 DBD-RORγ LBD): robust activities
Structure (SMILES): CC(=O)Nc1nc(C)c(S(=O)(=O)Nc2ccc(C(O)(C(F)(F)F)C(F)(F)F)cc2)s1 [SR1001]

competitive binding to RORγ-LBD (RORγ-LBD): no direct binding | competitive binding to RORγ-LBD (RORγ-LBD; listed as Naringenin): markedly diminished binding | competitive binding to RORα-LBD (RORα-LBD): no direct binding | competitive binding to RORα-LBD (RORα-LBD; listed as Naringenin): markedly diminished binding
Structure (SMILES): O=C1C[C@@H](c2ccc(O)cc2)Oc2cc(O)cc(O)c21 [naringenin]
PER2::Luc reporter rhythm / circadian amplitude [1]: failed to enhance cellular circadian rhythms | reporter luminescence ([1]; PER2::LUC Clock^Δ19/+ reporter cells): did not enhance the reporter luminescence | reporter luminescence [2]: did not enhance the reporter luminescence

Structure (SMILES): COc1ccc(-c2cc(=O)c3c(OC)c(OC)c(OC)c(OC)c3o2)cc1 [tangeretin]
PER2::Luc reporter rhythm / circadian amplitude [1]: similarly enhanced the PER2::Luc reporter rhythm
